Test results: patent US20080109040A1, “METHOD OF TREATING ARRHYTHMIAS” (priority 2002, published 2008)
Read-outs that look alike come from different tables or passages of the source.

System: M cell preparations
Design: species or system canine
Conditions: for Amplitude / Overshoot / RMP: BCL = 500 msec; for Reduction of Vmax: preparation type not stated
Description: The composition of the Tyrode's solution was (in mM): […] Action potential recordings: Transmembrane potentials were recorded using standard glass microelectrodes filled with 2.7 M KCl (10 to 20 MΩ DC resistance) connected to a high input-impedance amplification system (World Precision Instruments, Sarasota, Fla., USA). […] Data recorded at BCLs of 500 and 2000 msec are presented.

[1] = M cell, low [K+]o, BCL = 2000 msec

In the case of `COc1ccccc1OCC(O)CN1CCN(CC(=O)Nc2c(C)cccc2C)CC1` (racemic) [ranolazine, N-(2,6-dimethylphenyl)-4-[2-hydroxy-3-(2-methoxyphenoxy)propyl]-1-piperazineacetamide], the “Effect on APD” value (M cell preparations, BCL 500 msec) is reported as “abbreviation”, the “Effect on APD50 and APD90” value (M cell, [K+]o = 4 mM, BCL = 2000 msec) is reported as “concentration-dependent abbreviation” and the Effect on repolarization (M cell, low [K+]o, BCL 500 msec) is reported as “little change”. For the same compound, the “Effect on APD50” value [1] was “concentration-dependent abbreviation”, the “Effect on APD90” value [1] was “no significant change” and the Amplitude (M cell, ranolazine 1.0 μM) was 109 ± 9. It also gave an Overshoot (M cell, ranolazine 1.0 μM) of 23 ± 10, an RMP (M cell, ranolazine 1.0 μM) of −86 ± 3 and an Amplitude (M cell, ranolazine 5.0 μM) of 114 ± 8. It also gave an Overshoot (M cell, ranolazine 5.0 μM) of 27 ± 7, an RMP (M cell, ranolazine 5.0 μM) of −86 ± 3 and an Amplitude (M cell, ranolazine 10.0 μM) of 113 ± 9. For the same compound, the Overshoot (M cell, ranolazine 10.0 μM) was 25 ± 8, the RMP (M cell, ranolazine 10.0 μM) was −86 ± 2 and the Amplitude (M cell, ranolazine 50.0 μM) was 104 ± 7. For the same compound, the Overshoot (M cell, ranolazine 50.0 μM) was 19 ± 3, the RMP (M cell, ranolazine 50.0 μM) was −86 ± 5 and the Amplitude (M cell, ranolazine 100.0 μM) was 91 ± 19. The Overshoot (M cell, ranolazine 100.0 μM) was 9 ± 13, the RMP (M cell, ranolazine 100.0 μM) was −86 ± 7 and the “Reduction of Vmax” value (ranolazine 10 μM, BCL 500 msec) was “modest (n.s.)”. The “Reduction of Vmax” value (ranolazine 100 μM, BCL 500 msec) was “more substantial” and the “Preparations in which d-sotalol-induced EAD activity was suppressed and APD abbreviated” value (ranolazine 5-20 μM, 100 μM d-sotalol, M cell preparations) was 4/4.
